In patent US12646011B2, “Methods and nutritional formulations to increase the efficacy and reduce the side effects of cancer treatment” (UNIVERSITY OF SOUTHERN CALIFORNIA, priority 2009, dated 2026):

Legend:
GL26 glioma cells = assay: Comet assay, GL26; format: cell-based, murine; conditions: glucose 0.5 vs 2.0 g/L, 1% FBS
Procedure: (§3) To determine the mechanisms responsible for this STS-dependent sensitization, the effect of low glucose on DNA single and double strand breaks in cancer cells exposed to chemotherapy by the comet assay was studied.
(§4) Cells were diluted to 10^5/ml in culture medium (DMEM/F12 with 10% FBS), and treated with 50 μM DXR for 1 hour at 37° C. Cells were then washed once with ice cold PBS and subject to CometAssay (Trevigen, Inc, Gaithersburg, MD) according to the manufacturer's recommended procedure. Comet images were acquired with a Nikon Eclipse TE300 fluorescent microscope and analyzed with the Comet Score software (TriTek Corp., ver1.5). 100-300 cells were scored for each genotype/treatment group.

B16 melanoma cells [1] = assay: Comet assay, B16; format: cell-based, murine; conditions: glucose 0.5 vs 2.0 g/L, 1% FBS
Procedure: as §3, §4

B16 melanoma cells [2] = assay: Metastatic mouse model of melanoma; format: in vivo
Description: The effect of fasting on chemotherapy was studied in metastatic models generated by intravenous injections of murine breast cancer cells (4T1), melanoma cells (B16), and 2 neuroblastoma cell lines (NXS2 and Neuro-2a) in immunocompetent mice. Fasting potentiated chemotherapy and extended the survival of all mice models of metastatic cancer (FIGS. 24-28). In the metastatic model of melanoma, mice were sacrificed early to determine the effect of STS on metastases. […] For instance, lung metastases were found in 100% vs65% of mice that received DXR under normal feeding and fasting, respectively. In addition, unlike normally fed mice, metastases were not detected in the liver or spleen of fasted mice (FIG. 25).
Body weight was measured immediately before and after fasting.

[3] = test system: murine neuroblastoma (NXS2); assay: Metastatic mouse model of neuroblastoma NXS2, survival; format: in vivo; conditions: 16 mg/Kg
[4] = test system: breast cancer cells (4T1); assay: In vitro fasting (STS) and chemotherapy, MTT survival, 4T1; format: cell-based, murine; conditions: for sensitization by serum from fasted mice: versus serum from mice fed ad lib, MTT
Procedure: To model fasting in vitro, cancer cells were incubated in media containing serum collected from mice either fed ad lib or fasted for 48 hours. […] Because pronounced glucose and growth factor reduction (e.g., the 75% reduction in the growth factor IGF-I) are two key extracellular responses to fasting, cells were incubated in different glucose and serum concentrations based on blood glucose measurements from normally fed and fasted mice (FIG. 31), i.e., incubation in low glucose (0.5 g/L) with low serum (1% FBS), or normal glucose (1.0 and 2.0 g/L for human and murine cell lines respectively) with normal serum (10% FBS) for 24 hours before and also during drug treatment (FIG. 32).
4T1-luc murine breast cancer cells were purchased from SibIech (Brookfield, CT). B16-fluc murine melanoma cells were provided by Noah Craft (UCLA). GL26 murine glioma, U87-MG human glioblastoma cells were provided by Thomas Chen (USC). PC3 and 22RV1 human prostate cancer cells were provided by Pinchas Cohen (UCLA). MCF-7 and […] human breast cancer cells and HeLa human cervical cancer cells were provided by Amy Lee (USC). LOVO human colon cancer cells were provided by Darryl Shibata (USC). NXS2 and Neuro-2a murine neuroblastoma, human ACN and SH-SY5Y neuroblastoma, OVCAR human ovarian carcinoma, MZ-MEL human melanoma, A431 epidermoid carcinoma cells were routinely cultured in the Laboratory of Oncology of Gaslini Institute. 4T1 cells were stably transfected with LC3-GFP, which was a kind gift from Jae Jung at USC, for autophagy studies. All cells were routinely maintained in DMEM 10% FBS at 37° C., 5% CO2. To inhibit autophagy cells were treated with 5 μM chloroquine (CQ) for 48 hours during in vitro STS. To modulate HO-1 activity, 4T1 cells were treated with 10 μM hemin (Sigma) or 20 μM zinc protoporphyrin (ZnPP; Sigma) for 24 hours prior to and 24 hours during chemotherapy treatment.
In vitro chemotherapy was performed by treating cells in medium containing chemotherapy for 24 hours. Optimum drug doses were determined for each individual cell line. For in vivo studies, DXR was injected intravenously via lateral tail veins, and CP was injected intraperitoneally.
Cellular fasting was done by glucose and/or serum restriction which was based on blood glucose measurements in fasted and normally fed mice; the lower level approximated to 0.5 g/L. and the upper level to 2.0 g/L. For human cell lines, normal glucose was considered as 1.0 g/L. Cells were washed twice with PBS before changing to fasting medium.
Cytotoxicity was measured by the ability to reduce methylthiazolyldiphenyl-tetrazolium bromide (MTT). Briefly, MTT was prepared at 5 mg/ml in PBS, diluted to a final concentration of 0.5 mg/ml for assays, and incubated for 3-4 hours at 37° C. […] Survival was presented as percentage of MTT reduction level of treated cells to control cells. Absorbance was read at 570 nm using a microplate reader SpectraMax 250 (Molecular Devices) and SoftMax Pro 3.0 software (Molecular Devices).

[5] = test system: 17 different cancer cells; assay: STS sensitization panel of 17 cancer cell lines, MTT; format: cell-based; conditions: 0.5 g/L glucose, 1% FBS versus normal glucose, 10% FBS
Procedure: (§1) To model fasting in vitro, cancer cells were incubated in media containing serum collected from mice either fed ad lib or fasted for 48 hours. In agreement with results in mice, breast cancer cells (4T1) cultured in medium supplemented with serum from fasted mice were sensitized to both DXR and CP compared to the effect of incubation in serum from mice fed ad lib (FIG. 30). Because pronounced glucose and growth factor reduction (e.g., the 75% reduction in the growth factor IGF-I) are two key extracellular responses to fasting, cells were incubated in different glucose and serum concentrations based on blood glucose measurements from normally fed and fasted mice (FIG. 31), i.e., incubation in low glucose (0.5 g/L) with low serum (1% FBS), or normal glucose (1.0 and 2.0 g/L for human and murine cell lines respectively) with normal serum (10% FBS) for 24 hours before and also during drug treatment (FIG. 32). In agreement with the in vivo studies, glucose and serum restriction sensitized 15 out of 17 different cancer cells lines, including the murine melanoma (B16), glioma (GL26), and breast cancer (4T1) cells to DXR and/or CP (FIGS. 32-34). […]
(§2) Cytotoxicity was measured by the ability to reduce methylthiazolyldiphenyl-tetrazolium bromide (MTT). […] Absorbance was read at 570 nm using a microplate reader SpectraMax 250 (Molecular Devices) and SoftMax Pro 3.0 software (Molecular Devices).

prostate adenocarcinoma = assay: PSA level, cases 3 and 7; format: in vivo, human
Procedure: A person who was diagnosed in July of 2000 with bilateral prostate adenocarcinoma, Gleason score 7 and PSA level of 5.8 ng/ml. A prostatectomy performed in September of 2000 led to undetectable levels of PSA until January 2003 when it rose to 1.4 ng/ml. Leuprolide acetate together with bicalutamide and finasteride were prescribed. […] Different drugs including triptorelinpamoate, nilutamide, thalidomide, CP and ketoconazole were utilized to control the disease. In 2007 the patient's PSA level reached 9 ng/ml and new metastases were observed during a bone scan. […] After stopping the chemotherapy treatments, their PSA rose rapidly. DTX at 75 mg/m2 in a 3-weekly cycle was the regimen elected and once again the patient suffered significant side effects (FIG. 5). In June 2008, Chemotherapy stopped. The patient was enrolled in a phase III clinical trial with abiraterone acetate, a drug that can selectively block CYP17, a microsomal enzyme that catalyzes a series of reactions critical to nongonadal androgen biosynthesis (Derek Raghavan and Eric A. Klein J.C.O 2008). […] This time the patient opted to fast prior to chemotherapy. […] In agreement to the patient's experience, blood readouts were consistently stable and remained within normal range throughout the treatments (FIGS. 4A-G). During the last three cycles, besides fasting the patient applied testosterone (cream 1%) for five days prior to chemotherapy.
As a consequence the PSA level along with testosterone level increased dramatically.
A person who was diagnosed in July 1998 with prostate adenocarcinoma, Gleason score 8. […] In 1998, the patient received leuprolide acetate and bicalutamide for the first time. In September 1999, those drugs wore off and they were put on finasteride. […] They started the second cycle with leuprolide acetate and also received High Dose Rate (HDR) brachytherapy and external beam radiation with Intensity Modulated Radiation Therapy (IMRT). Complementary treatment with multiple drugs such as bicalutamide, triptorelinpamoate and nandrolone was applied in order to control the disease. However, their PSA level increased quickly each time the treatment was halted. […] The patient decided to fast 60-66 hours prior to and 8-24 hours followed chemotherapy (Table 3).

[6] = Self-reported side effects after chemotherapy (CTC-based survey); format: in vivo, human
Procedure: Ten cases are described in which patients diagnosed with a variety of malignancies have voluntarily fasted prior to (48-140 hours) and/or following (24-56 hours) chemotherapy. None of these 10 patients, who received an average of 4 cycles of chemotherapy in combination with fasting, reported significant side effects caused by the fasting itself other than hunger. Toxicity was graded based on the Common Toxicity Criteria (CTC) of the National Cancer Institute (NCI) and self-reported side-effects from five patients indicate that fasting may protect against fatigue, weakness, and gastrointestinal side effects.
Self-reported assessments of all 10 patients were obtained to evaluate the severity of the side effects experienced. Since many of the chemo toxic side effects are cumulative, survey data was compared, including all the combined fasting- and non-fasting associated chemotherapy side effects (FIG. 17A). Toxicity was graded based on the Common Toxicity Criteria of National Cancer Institute. Encouragingly, better self-reported health outcomes were addressed by all the patients even though chemo-fasting cycles were mostly carried out in the later portion of the therapy. Nausea, vomiting, diarrhea, abdominal cramps, and mouth sores were virtually absent from the reports of all 10 patients whenever chemo-fasting cycles were administered, whereas at least one of these symptoms was reported by 5 out of the 6 ad lib fed patients (FIG. 17A). The four patients that always fasted in combination with all the chemo-treatments reported low severity for the majority of the side effects (FIGS. 12, 13, 14, 16). Only mild weakness and hair loss were reported by multiple patients. For the 6 patients that received chemotherapy in association with both, fasting or ad lib diet, the severity of the self-reported side effects was determined by considering only the two closest cycle of chemotherapy in which the patient had fasted or not. There was a general and major reduction in the severity of many of the self-reported side effects in combination with fasting (FIG. 17B).

melanoma (B16) cells = assay: In vitro fasting (STS) and chemotherapy, MTT survival, B16; format: cell-based, murine; conditions: rhIGF-I; glucose 0.5 vs 2.0 g/L, 1% FBS; DXR 16 μM
Procedure: as §1, with “32).” for “32). In agreement with the in vivo studies, glucose and serum restriction sensitized 15 out of 17 different cancer cells lines, including the murine melanoma (B16), glioma (GL26), and breast cancer (4T1) cells to DXR and/or CP (FIGS. 32-34).”
In vitro chemotherapy was performed by treating cells in medium containing chemotherapy for 24 hours. Optimum drug doses were determined for each individual cell line. […]
as §2

4T1 breast cancer cells = conditions: glucose 0.5 vs 2.0 g/L, 1% FBS
Procedure: as §3, §4

4T1 breast cancer = conditions: two fasting cycles; 20 days after the last treatment
Procedure: Short-term starvation (STS), or fasting, was achieved by complete food withdrawal for 48-60 hours with continued access to water. […] Fasting in the glioma model was applied only once due to the unusually rapid tumor growth in the control (ad lib, no chemotherapy) group.
To establish a subcutaneous cancer mouse model, 12 week-old female BALB/c, 12-week-old female and male C57BL/6 mice, and 7-week-old Nude mice were injected with 4T1 breast cancer cells, B16 melanoma and GL26 glioma cells, and ACN human neuroblastoma cells, respectively. For metastatic mouse models of cancer, 12-week-old female BALB/c, 12-week-old female and male C57BL/6 mice were injected intravenously via lateral tail veins with 2×105 4T1, B16, GL26 cells, respectively, and 6-week-old female A/J mice were injected via lateral tail veins with 2×105 NXS2, and 1×10^6 Neuro-2a cells. […] Body weights were determined periodically and tumor size was measured using a digital vernier caliper. Tumor volume was calculated using the following equation: tumor volume (mm3)=(length×width×height)×π/6, where the length, width and height are in mm.
Animals were fasted for a total of 48-60 hours by complete deprivation of food but with free access to water. […] Body weight was measured immediately before and after fasting.

[7] = case 7, fasting 60-66 h prior, 8-24 h after

## COc1cccc2c1C(=O)c1c(O)c3c(c(O)c1C2=O)C[C@@](O)(C(=O)CO)C[C@@H]3O[C@H]1C[C@H](N)[C@H](O)[C@H](C)O1 [DXR, doxorubicin]
GL26 glioma cells
  DNA damage when combined with STS: synergistically increased DNA damage
GL26 glioma cells; listed as doxorubicin
  DNA damage when combined with STS: additive
B16 melanoma cells [1]
  DNA damage when combined with STS: synergistically increased DNA damage
B16 melanoma cells [2]; fasted mice
  metastases in the liver or spleen: not detected
B16 melanoma cells [2]; normal feeding
  mice with lung metastases: 100%
[3]; 2 cycles of fasting
  Long-term survival (over 180 days): 42%
[3]; ad lib group
  mortality: 100%
[4]
  sensitization by serum from fasted mice: sensitized
[5]
  cancer cell lines sensitized by STS: 15 out of 17

## CC(=O)O[C@@]12CO[C@@H]1C[C@H](O)[C@@]1(C)C(=O)[C@H](O)C3=C(C)[C@@H](OC(=O)[C@H](O)[C@@H](NC(=O)OC(C)(C)C)c4ccccc4)C[C@@](O)([C@@H](OC(=O)c4ccccc4)[C@H]21)C3(C)C [DTX, docetaxel]
Prostate adenocarcinoma; case 3, 25 mg/m2 weekly, no fasting
  PSA level: 40.6 ng/mL
Prostate adenocarcinoma; case 3, reduced from 34.2, testosterone cream 1% applied before chemotherapy
  PSA after 3 cycles of chemotherapy with fasting: 6.43 ng/mL
Prostate adenocarcinoma; case 3, upon restarting chemo-fasting treatments, 75 mg/m2
  PSA level: dropped immediately
Prostate adenocarcinoma; [7]
  PSA levels throughout the cycles: consistent decreasing trend
[6]; case 3, 75 mg/m2 with fasting, versus previous ad-lib cycles
  self-reported side effects: considerably lower side effects
[6]; case 3, chemotherapy cycles without fasting
  self-reported side effects: fatigue, weakness, metallic taste, dizziness, forgetfulness, short-term memory impairment and peripheral neuropathy
[6]; [7]
  self-reported side effects: almost non-existent except for mild vibratory sensation in their feet

## IGF-I: rhIGF-I, growth factor added during glucose restriction
Melanoma (B16) cells
  effect on STS-dependent sensitization to DXR: reverses the sensitization
[4]; rhIGF-I, glucose 0.5 vs 2.0 g/L, 1% FBS, DXR 16 μM
  effect on STS-dependent sensitization to DXR: reverses the sensitization

## hemin
[4]; HO-1 inducer, 10 μM, 24 h before and 24 h during CP
  fasting-dependent sensitization to chemotherapy (CP): partially reversed

## Bevacizumab: Bevacizumab added into the DTX treatment
Prostate adenocarcinoma; case 3, added to weekly DTX treatment
  PSA: dropped significantly

## CCN(CC)CCCC(C)Nc1ccnc2cc(Cl)ccc12 (stereo not shown) [chloroquine]
[4]; 5 μM, 48 hours, glucose restriction in low serum
  cell death on inhibition of autophagy during STS: further increased cell death

## O=P1(N(CCCl)CCCl)NCCCO1 (stereo not shown) [CP, cyclophosphamide]
[4]
  sensitization by serum from fasted mice: sensitized
4T1 breast cancer cells
  DNA damage when combined with STS: synergistically increased DNA damage
4T1 breast cancer
  tumor size relative to CP treatment alone group: less than half

## C=CC1=C(C)c2cc3[n-]c(cc4nc(cc5[n-]c(cc1n2)c(C)c5C=C)C(C)=C4CCC(=O)O)c(CCC(=O)O)c3C.[Zn+2] [ZnPP, zinc protoporphyrin]
[4]; HO-1 inhibitor, 20 μM, 24 h before and 24 h during CP
  sensitivity to chemotherapy (CP): sensitized cancer cells to chemotherapy
